# Results published in patent US5676937A, “Deodorant compositions comprising inhibitors of odor-producing axillary bacterial exoenzymes” (Colgate-Palmolive Company, priority 1995, dated 1997).
# Like-named read-outs stand apart in the source and are kept apart here.
# Assays:
# beta-glucuronidase [1] = molecular target: T1, beta-glucuronidase (Escherichia coli, UniProt P05804); assay: Quantitative fluorimetric assay of beta-G; type: biochemical, E. coli; details: FIG. 3; for level at which inhibition of beta-G is provided: in words; for effective inhibitor concentration range for beta-G: relative initial rate vs log inhibitor concentration, 37° C.
# T1 construct: purchased Sigma Chemical Co
# T1 sequence (P05804 whole entry): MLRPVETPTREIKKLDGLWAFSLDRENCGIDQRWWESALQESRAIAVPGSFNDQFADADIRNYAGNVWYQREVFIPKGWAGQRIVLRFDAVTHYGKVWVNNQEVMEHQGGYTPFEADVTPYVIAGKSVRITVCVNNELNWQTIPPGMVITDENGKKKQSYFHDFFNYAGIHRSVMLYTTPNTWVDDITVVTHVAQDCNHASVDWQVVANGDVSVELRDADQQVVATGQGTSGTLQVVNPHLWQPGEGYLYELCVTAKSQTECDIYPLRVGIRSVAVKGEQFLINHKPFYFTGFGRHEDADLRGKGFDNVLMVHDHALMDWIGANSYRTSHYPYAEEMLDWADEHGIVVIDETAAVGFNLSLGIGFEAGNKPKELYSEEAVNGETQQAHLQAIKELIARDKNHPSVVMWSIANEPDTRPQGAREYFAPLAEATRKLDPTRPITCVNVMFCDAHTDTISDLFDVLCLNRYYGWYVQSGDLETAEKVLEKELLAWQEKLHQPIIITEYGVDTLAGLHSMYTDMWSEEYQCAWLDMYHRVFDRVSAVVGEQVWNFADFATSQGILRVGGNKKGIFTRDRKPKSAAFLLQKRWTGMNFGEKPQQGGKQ
# Method: In addition to the semiquantitative assays several inhibitors of each, beta-G and AS, were assayed by quantitative fluorimetry. […] Prior to the performance of quantitative assays it was necessary to determine absorption and emission maxima of the fluorescent product 4-MU, as well as a concentration range for which the fluorescence intensity of this species varies linearly with concentration. A solution of 4-MU, 2 μg.ml, was prepared in 0.1M Tris buffer, pH 7.0. The absorption spectrum was scanned, giving a maximum at 334 nm. The emission maximum, 444 nm, was obtained by scanning the emission spectrum while irradiating at 334 nm. All quantitative fluorescence studies employed these parameters.
# The levels of 4-MU generated in beta-G and AS assays fell into range 1. The conversion factor was 1 fluorescence unit=0.09 μM 4-MU.
# Samples were prepared as described above. All components, except the enzyme, were warmed to 37° C. before addition of the enzyme. During the assays, reaction mixtures were maintained at 37° C. Fluorescence intensities were measured as a function of time.
# As in the semi-quantitative tests, the progress of the reactions was indicated by the development of fluorescent product 4-MU from the non-fluorescent substrates, 4-MUG and 4-MUS. The data was recorded as fluorescence emission intensity as a function of time. […] Similar plots were constructed for each inhibitor. At each concentration, the beginning slope indicates the initial reaction rate. These rates were then expressed as a fraction of the uninhibited reaction rate and plotted against the log of the inhibitor concentration.
# beta-glucuronidase [2] = molecular target: T1, beta-glucuronidase; assay: Semiquantitative assay of beta-glucuronidase (4-MUG to fluorescent 4-MU); type: biochemical, E. coli; parameters: key: + indicates enzyme inhibition; - indicates no enzyme inhibition; details: test inhibitor at 0.1 mM to 100 mM, 37° C., Tris pH 7, fluorescence by UV lamp
# Method: (§1) B-glucuronidase from E. coli and aryl sulfatase from Aerobacter aerogenes, 4-methyl umbelliferyl glucuronide, 4-methylumbelliferyl sulfate, 4-methylumbelliferone, and D-saccharic acid-.tangle-solidup.-lactone were purchased from Sigma Chemical Co. Sodium hexametaphosphate (SPORIX) was obtained from International Sourcing.
# (§2) Semiquantitative assays of the exoenzymes beta-G and AS were prepared. The enzyme assays measure conversion at 37° C. of the non-fluorescent substrates 4-MUG (for beta-G) and 4-MUS (for AS) to fluorescent product, 4-MU. The assay mixtures contained:
# (§3) For the semiquantitative studies, fluorescence was detected by long-wave UV lamp (Black-Light Eastern Corporation Model XX 15).
# (§4) The effects of inhibitors on the enzymatic reactions were assessed by substituting aqueous Solutions of test inhibitor, at 0.1 mM to 100 mM, for the water. To rule out quenching of the fluorescence reaction by the inhibitors separate tests were performed comparing the fluorescence from 4-MU at the maximum concentration expected in the enzyme reaction mixtures with either inhibitor solution or water.
# (§5) Various inhibiting compounds of mammalian beta-G's and AS's, as well as related materials, were tested in the assay. The classic inhibitor of beta-G is saccharic acid-.tangle-solidup.-lactone (glucarolactone). This material was tested as well as the simple sugars, mannose, fucose and galactosamine and the polysaccharide pullulan. One of the reported inhibitors of beta-G, EDTA, is a strong chelating agent. Also tested against the enzyme were o-phenanthroline, citrate, gluconate, nitrilotriacetate and hexametaphosophate.
# aryl sulfatase [3] = molecular target: T2, aryl sulfatase (Klebsiella aerogenes, UniProt P20713); type: biochemical; parameters: key: + indicates enzyme inhibition; - indicates no enzyme inhibition
# T2 construct: purchased Sigma Chemical Co
# T2 sequence (P20713 21-464): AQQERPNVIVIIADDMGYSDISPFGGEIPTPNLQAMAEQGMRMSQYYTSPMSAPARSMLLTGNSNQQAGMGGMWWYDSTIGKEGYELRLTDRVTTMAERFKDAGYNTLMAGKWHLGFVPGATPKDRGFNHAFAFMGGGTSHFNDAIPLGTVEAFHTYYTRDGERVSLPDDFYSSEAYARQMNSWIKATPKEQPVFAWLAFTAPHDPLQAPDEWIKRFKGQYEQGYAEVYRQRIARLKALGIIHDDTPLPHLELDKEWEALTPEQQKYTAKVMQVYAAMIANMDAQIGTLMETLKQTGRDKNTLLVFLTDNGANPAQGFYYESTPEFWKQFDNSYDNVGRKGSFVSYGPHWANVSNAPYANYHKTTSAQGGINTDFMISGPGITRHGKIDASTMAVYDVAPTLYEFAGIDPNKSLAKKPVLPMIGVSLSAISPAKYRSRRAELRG
# Method: as §1, §2, §3, §4
# as §5, with “One of the reported inhibitors of beta-G, EDTA, is a strong chelating agent.” left out
# aryl sulfatase [4] = molecular target: T2, aryl sulfatase; assay: Quantitative fluorimetric assay of AS; type: biochemical; details: FIG. 4; relative initial rate vs log inhibitor concentration; 37° C.
# Method: As in the semi-quantitative tests, the progress of the reactions was indicated by the development of fluorescent product 4-MU from the non-fluorescent substrates, 4-MUG and 4-MUS. The data was recorded as fluorescence emission intensity as a function of time. […] At each concentration, the beginning slope indicates the initial reaction rate. These rates were then expressed as a fraction of the uninhibited reaction rate and plotted against the log of the inhibitor concentration.
# lipophilic diphtheroid [5] = assay: Inhibition of odor from apocrine secretion treated with lipophilic diphtheroids (panel odor evaluation); type: cell-based; details: lipophilic diphtheroids + apocrine sweat + inhibitor 40 mM; 37° C.; evaluated at 24 hr and 48 hr; panel of five
# Method: (§6) Apocrine secretion fluid was collected from eleven subjects. The axillary area was shaved, washed with a 0.1% solution of Triton X-100, rinsed with water, blotted dry, then rinsed with hexane. An intradermal injection of 0.1 ml of 1:2000 adrenaline was performed to stimulate the apocrine glands. Micropipettes (10 μl) were placed directly against the skin to collect the droplets of apocrine secretion. Samples were frozen until ready for use. The samples were eluted from the capillary tubes with 0.1M Tris buffer, pH 7.0, when ready for use in the odor-generation studies. Lipophilic diphtheroid cultures isolated from human axillae were obtained.
# (§7) Inhibiting compounds were then tested to determine their effect on odor production in apocrine secretion. Sterile, odorless apocrine secretion was eluted from capillaries into 1.5 ml of 0.1M Tris buffer, pH 7.0. In the first study, apocrine sweat was treated with beta-glucuronidase, (E. coli) and aryl sulfatase (Aerobacter aerogenes) at 0.01 mg/ml in Tris buffer, 0.1M, pH 7.0. The apocrine secretion was also treated with the lipophilic diphtheroid and with a mixed culture of axillary bacteria, each in sterile saline suspension.
# (§8) In a second study, inhibitors of the two enzymes were included in the reaction mixtures--Zn++ as Zn-Glycinate, saccharic acid lactone and hexametaphosphate. The concentration of each inhibitor used in this study was 40 mM. […]
# mixture of AS and betaG = assay: Inhibition of odor from apocrine secretion treated with enzymes (panel odor evaluation); type: biochemical, E. coli; Aerobacter aerogenes; details: enzymes (AS + betaG) + apocrine sweat + inhibitor 40 mM; 37° C.; evaluated at 24 hr and 48 hr; panel of five
# Method: as §6, §7, §8
# lipophilic diphtheroid [6] = assay: Minimum inhibitory concentration, lipophilic diphtheroid; type: cell-based; details: ">" = growth at the highest concentration
# Method: (§9) Minimum Inhibitory Concentration (MIC) values of several zinc complexes were measured for three organisms that occur naturally in the axilla: S. epidermidis, S. aureus and a lipophilic diphtheroid.
# (§10) Simple salts of zinc are known to be bacteriostatic. An outcome of the experiments was producing a method to reduce axillary odor without destroying the natural flora of the axilla. Therefore MIC values of several zinc complexes and the antiseptic Irgasan DP 300 (positive control) were measured against several organisms that occur naturally in the underarm, including S epidermidis, S. aureus, and a lipophilic diphtheroid. The ">" signs indicate that bacterial growth occurred at the highest concentration of zinc compound. None of the zinc compounds were conspicuously inhibitory, having effective levels ranging from 0.1 to 1%.
# S. epidermidis = assay: Minimum inhibitory concentration, S. epidermidis; type: cell-based; details: ">" = growth at the highest concentration
# Method: as §9, §10
# S. aureus = assay: Minimum inhibitory concentration, S. aureus; type: cell-based; details: ">" = growth at the highest concentration
# Method: as §9, §10
# axillary odor = assay: Human clinical study of axillary deodorancy; type: in vivo; details: for Mean Odor Score: four-judge average, ten-point scoring, Zn-GLY […], ACH 5.0%
# Method: The negative control was water. Odor assessments were performed by four experienced professional evaluators from Hill Top Research, using a ten-point scoring system. Ninety subjects were recruited, and baseline scores were established after a twenty-four hour conditioning period. Sixty subjects with highest scores (all greater than 4) were retained for the study.
# During the test the subjects were entered into a regimen of timed, supervised washes with conditioning soap bars, followed by supervised treatments with the test solutions and post-treatment odor evaluation. The evaluations were conducted at 5-hr and 24-hr intervals following treatments 2, 3 and 4 and all aspects were randomized to eliminate any biases.
# Scores of the four judges were averaged for each person, for each evaluation. The axilla-to-axilla difference for each person was taken as the index of the deodorancy of the test material versus the water control.
# The positive control was 5.0% aluminum chlorhydrate. […] The negative control was distilled deionized water.
# The mean odor scores represent the four-judge average odor scores, post-treatment. The control values are the average baseline odor scores for the various cells.
# [7] = test inhibitor at 0.1 mM to 100 mM, 4-MUS, 37° C., Tris pH 7, fluorescence by UV lamp
molecule,measurement,setting,value
"c1cnc2c(c1)ccc1cccnc12 [O-phenanthroline, o-phenanthroline]",level at which inhibition of beta-G is provided,beta-glucuronidase [1],millimolar levels
same,inhibition of BETA-G,beta-glucuronidase [2],+
"O=C(O)CN(CCN(CC(=O)O)CC(=O)O)CC(=O)O [EDTA, reference compound]",level at which inhibition of beta-G is provided,beta-glucuronidase [1],millimolar levels
same,inhibition of BETA-G,beta-glucuronidase [2],+
same,inhibition of AS,aryl sulfatase [3]; [7],-
[Cu+2] [Cu++],effective inhibitor concentration range for beta-G,beta-glucuronidase [1],10 to 100 µM
same,inhibition of BETA-G,beta-glucuronidase [2],+
same,effective inhibitor concentration range for AS,aryl sulfatase [4],0.1 to 10 µM
same,inhibition of AS,aryl sulfatase [3]; [7],+
pullulan,inhibition of BETA-G,beta-glucuronidase [2],-
"O=C(O)[C@@H](O)[C@H]1OC(=O)[C@H](O)[C@H]1O [D-glucaro-.tangle-solidup.-lactone, D-saccharic acid-.tangle-solidup.-lactone, reference compound]",odor,lipophilic diphtheroid [5],Moderate sweaty
same,odor,mixture of AS and betaG,No odor to faint musky-sweaty
same,effective inhibitor concentration range for beta-G,beta-glucuronidase [1],1-10 μm
same,inhibition of BETA-G,beta-glucuronidase [2],+
fucose,inhibition of BETA-G,beta-glucuronidase [2],-
mannose,inhibition of BETA-G,beta-glucuronidase [2],-
"N[C@H]1C(O)O[C@H](CO)[C@H](O)[C@@H]1O (stereo partly shown) [Galactosamine, galactosamine]",inhibition of BETA-G,beta-glucuronidase [2],-
[Cl-].[Cl-].[Zn+2] [ZnCl2],"MIC, LIPOPHILIC DIPHTHEROID",lipophilic diphtheroid [6],> 1000 ppm
same,"MIC, STAPHYLOCOCCUS EPIDERMIS",S. epidermidis,> 1000 ppm
same,"MIC, STAPHYLOCOCCUS AUREUS",S. aureus,> 1000 ppm
O=S(=O)([O-])[O-].[Na+].[Na+] [Sodium sulfate],inhibition of BETA-G,beta-glucuronidase [2],+
O=P(O)(O)O [Orthophosphate],inhibition of AS,aryl sulfatase [3]; pH 7,+
"O=P1([O-])OP(=O)([O-])OP(=O)([O-])OP(=O)([O-])OP(=O)([O-])OP(=O)([O-])O1.[Na+].[Na+].[Na+].[Na+].[Na+].[Na+] [hexametaphosphate, Sodium hexametaphosphate]",odor,mixture of AS and betaG,Faint/moderate musky-sweaty
same,inhibition of BETA-G,beta-glucuronidase [2],+
same,effective inhibitor concentration range for AS,aryl sulfatase [4],10-100 82 M
same,inhibition of AS,aryl sulfatase [3]; [7],+
"Oc1cc(Cl)ccc1Oc1ccc(Cl)cc1Cl [Irgasan, reference compound]","MIC, LIPOPHILIC DIPHTHEROID",lipophilic diphtheroid [6],16 ppm
same,"MIC, STAPHYLOCOCCUS EPIDERMIS",S. epidermidis,< 0.5 ppm
same,"MIC, STAPHYLOCOCCUS AUREUS",S. aureus,< 0.5 ppm
O=C(O)CC(O)(CC(=O)O)C(=O)O [Citrate],inhibition of BETA-G,beta-glucuronidase [2],-
[Zn+2] [Zn++],effective inhibitor concentration range for beta-G,beta-glucuronidase [1],10 to 100 µM
same,inhibition of BETA-G,beta-glucuronidase [2],+
same,effective inhibitor concentration range for AS,aryl sulfatase [4],10-100 82 M
same,inhibition of AS,aryl sulfatase [3]; [7],+
aluminum chlorhydrate [ACH],% Difference (decrease in odor vs H2O axilla),"axillary odor; application #2, 5 hr",34.0%
same,Mean Odor Score,"axillary odor; application #2, 5 hr",3.13
same,% Difference (decrease in odor vs H2O axilla),"axillary odor; application #2, 24 hr",27.8%
same,Mean Odor Score,"axillary odor; application #2, 24 hr",3.91
same,% Difference (decrease in odor vs H2O axilla),"axillary odor; application #3, 5 hr",28.8%
same,Mean Odor Score,"axillary odor; application #3, 5 hr",2.95
same,% Difference (decrease in odor vs H2O axilla),"axillary odor; application #3, 24 hr",26.1%
same,Mean Odor Score,"axillary odor; application #3, 24 hr",3.88
same,% Difference (decrease in odor vs H2O axilla),"axillary odor; application #4, 5 hr",34.9%
same,Mean Odor Score,"axillary odor; application #4, 5 hr",2.90
same,% Difference (decrease in odor vs H2O axilla),"axillary odor; application #4, 24 hr",29.5%
same,Mean Odor Score,"axillary odor; application #4, 24 hr",3.64
